Results from ChEMBL document CHEMBL1131172 (J Med Chem, 1998).

What was measured:
Dihydrofolate reductase [1] = target: T1, Dihydrofolate reductase (Pneumocystis carinii, UniProt P16184)
T1 sequence (P16184 whole entry): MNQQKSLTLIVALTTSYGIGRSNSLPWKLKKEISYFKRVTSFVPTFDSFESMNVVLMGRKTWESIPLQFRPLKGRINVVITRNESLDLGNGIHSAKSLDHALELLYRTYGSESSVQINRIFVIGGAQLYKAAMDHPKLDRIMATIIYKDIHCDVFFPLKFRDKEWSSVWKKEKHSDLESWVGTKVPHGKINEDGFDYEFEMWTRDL
Description: Inhibitory activity against dihydrofolate reductase (DHFR) from Pneumocystis carinii

SR = test: inhibition of the growth of leukemia(SR) cell line; format: functional; conditions: Homo sapiens
NCI-H522 = test: inhibition of the growth of non-small-cell lung cancer (NCI-H522) cell line; format: functional; conditions: Homo sapiens
OVCAR-8 [2] = test: inhibition of the growth of ovarian cancer(OVCAR-8) cell line; format: functional; conditions: Homo sapiens
NCI-H23 [3] = test: inhibition of the growth of non-small-cell lung cancer (NCI-H23) cell line; format: functional; conditions: Homo sapiens
Dihydrofolate reductase [4] = target: T2, Dihydrofolate reductase (Rattus norvegicus, UniProt Q920D2)
T2 sequence (Q920D2 whole entry): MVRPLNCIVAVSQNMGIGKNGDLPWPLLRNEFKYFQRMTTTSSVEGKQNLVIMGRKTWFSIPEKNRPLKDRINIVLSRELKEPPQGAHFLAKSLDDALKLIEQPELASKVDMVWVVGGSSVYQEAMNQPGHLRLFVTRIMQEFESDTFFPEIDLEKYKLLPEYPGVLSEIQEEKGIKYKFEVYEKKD
Description: Inhibitory activity against dihydrofolate reductase (DHFR) from rat liver

MOLT-4 = test: inhibition of the growth of leukemia (MOLT-4) cell line; format: functional; conditions: Homo sapiens
NCI/ADR-RES = test: inhibition of the growth of breast cancer (MCF7/ADR-RES) cell line; format: functional; conditions: Homo sapiens
786-0 = test: inhibition of the growth of renal cancer(786-0) cell line; format: functional; conditions: Homo sapiens
RPMI-8226 [5] = test: inhibition of the growth of leukemia (RPMI-8226) cell line; format: functional; conditions: Homo sapiens
DU-145 = test: inhibition of the growth of prostate cancer(DU-145) cell line; format: functional; conditions: Homo sapiens
NCI-H460 [6] = test: Inhibition of the growth of non-small-cell lung cancer (NCI-H460) cell line at 0.01 uM; format: functional; conditions: Homo sapiens
HCT-116 [7] = test: Inhibition of the growth of colon cancer(HCT116) cell line at 0.01 uM; format: functional; conditions: Homo sapiens
NCI-H322M = test: inhibition of the growth of non-small-cell lung cancer (NCI-H322M) cell line; format: functional; conditions: Homo sapiens
SF-295 [8] = test: Inhibition of the growth of CNS cancer(SF-295) cell line at 0.01 uM; format: functional; conditions: Homo sapiens
SK-MEL-5 [9] = test: inhibition of the growth of melanoma cancer (SK-MEL-5) cell line; format: functional; conditions: Homo sapiens
HCT-15 [10] = test: Inhibition of the growth of colon cancer(HCT-15) cell line at 0.01 uM; format: functional; conditions: Homo sapiens
MDA-MB-435 [11] = test: inhibition of the growth of breast cancer (MDA-MB-435) cell line; format: functional; conditions: Homo sapiens
SF-268 [12] = test: Inhibition of the growth of CNS cancer(SF-268) cell line at 0.01 uM; format: functional; conditions: Homo sapiens
MDA-MB-435 [13] = test: Inhibition of the growth of breast cancer (MDA-MB-435) cell line at 0.01 uM; format: functional; conditions: Homo sapiens
SF-539 = test: inhibition of the growth of CNS cancer(SF-539) cell line; format: functional; conditions: Homo sapiens
UO-31 [14] = test: inhibition of the growth of renal cancer(UO-31) cell line; format: functional; conditions: Homo sapiens
HCT-116 [15] = test: inhibition of the growth of colon cancer(HCT116) cell line; format: functional; conditions: Homo sapiens
M14 = test: inhibition of the growth of melanoma cancer (M14) cell line; format: functional; conditions: Homo sapiens
CAKI-1 = test: inhibition of the growth of renal cancer(CAKI-1) cell line; format: functional; conditions: Homo sapiens
SK-MEL-5 [16] = test: Inhibition of the growth of melanoma cancer (SK-MEL-5) cell line at 0.01 uM; format: functional; conditions: Homo sapiens
SNB-19 [17] = test: Inhibition of the growth of CNS cancer(SNB-19) cell line at 0.01 uM; format: functional; conditions: Homo sapiens
NCI-H460 [18] = test: inhibition of the growth of non-small-cell lung cancer (NCI-H460) cell line; format: functional; conditions: Homo sapiens
IGROV-1 [19] = test: inhibition of the growth of ovarian cancer(IGROVI) cell line; format: functional; conditions: Homo sapiens
NCI-H23 [20] = test: Inhibition of the growth of non-small-cell lung cancer (NCI-H23) cell line at 0.01 uM; format: functional; conditions: Homo sapiens
RPMI-8226 [21] = test: Inhibition of the growth of leukemia (RPMI-8226) cell line at 0.01 uM; format: functional; conditions: Homo sapiens
[22] = target: T3, Bifunctional dihydrofolate reductase-thymidylate synthase (Toxoplasma gondii, UniProt Q07422)
T3 sequence (Q07422 whole entry): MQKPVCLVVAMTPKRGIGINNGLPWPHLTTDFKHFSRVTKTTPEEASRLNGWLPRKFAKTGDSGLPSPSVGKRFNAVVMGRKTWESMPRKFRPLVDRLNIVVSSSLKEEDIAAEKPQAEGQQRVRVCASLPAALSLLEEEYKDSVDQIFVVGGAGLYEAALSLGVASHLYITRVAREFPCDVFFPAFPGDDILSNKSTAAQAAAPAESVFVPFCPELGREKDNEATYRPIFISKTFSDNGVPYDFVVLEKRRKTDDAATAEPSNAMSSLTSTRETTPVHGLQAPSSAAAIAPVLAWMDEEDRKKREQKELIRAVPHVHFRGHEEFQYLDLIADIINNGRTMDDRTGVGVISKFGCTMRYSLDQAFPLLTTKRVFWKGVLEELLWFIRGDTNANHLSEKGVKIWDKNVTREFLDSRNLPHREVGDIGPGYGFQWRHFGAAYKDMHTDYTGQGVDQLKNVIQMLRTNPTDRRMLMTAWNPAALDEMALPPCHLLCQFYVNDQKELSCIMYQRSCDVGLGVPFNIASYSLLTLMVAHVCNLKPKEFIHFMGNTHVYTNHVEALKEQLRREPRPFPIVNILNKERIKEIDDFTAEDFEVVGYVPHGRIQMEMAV
Description: Inhibitory activity against dihydrofolate reductase (DHFR) from Toxoplasma gondii

MDA-N [23] = test: Inhibition of the growth of breast cancer(MDA-N) cell line at 0.01 uM; format: functional; conditions: Homo sapiens
A549 [24] = test: Inhibition of the growth of non-small-cell lung cancer (A549/ATCC) cell line at 0.01 uM; format: functional; conditions: Homo sapiens
SF-268 [25] = test: inhibition of the growth of CNS cancer(SF-268) cell line; format: functional; conditions: Homo sapiens
IGROV-1 [26] = test: Inhibition of the growth of ovarian cancer(IGROVI) cell line at 0.01 uM; format: functional; conditions: Homo sapiens
OVCAR-8 [27] = test: Inhibition of the growth of ovarian cancer(OVCAR-8) cell line at 0.01 uM; format: functional; conditions: Homo sapiens
SF-295 [28] = test: inhibition of the growth of CNS cancer(SF-295) cell line; format: functional; conditions: Homo sapiens
MCF7 = test: inhibition of the growth of breast cancer (MCF-7) cell line; format: functional; conditions: Homo sapiens
UO-31 [29] = test: inhibition of the growth of renal cancer(UO-31) cell line at 0.01 uM; format: functional; conditions: Homo sapiens
KM12 = test: inhibition of the growth of colon cancer(KM-12) cell line; format: functional; conditions: Homo sapiens
A549 [30] = test: inhibition of the growth of non-small-cell lung cancer (A549/ATCC) cell line; format: functional; conditions: Homo sapiens
SNB-19 [31] = test: inhibition of the growth of CNS cancer(SNB-19) cell line; format: functional; conditions: Homo sapiens
MDA-N [32] = test: inhibition of the growth of breast cancer(MDA-N) cell line; format: functional; conditions: Homo sapiens
HCT-15 [33] = test: inhibition of the growth of colon cancer(HCT-15) cell line; format: functional; conditions: Homo sapiens

Question: How did the IC50 (Dihydrofolate reductase [1]) turn out when `COc1cc(N(C)c2ccc3nc(N)nc(N)c3n2)cc(OC)c1OC` was run?
Answer: 21 nM

Question: And the GI50 (SR)?
Answer: 30 nM

Question: And the GI50 (NCI-H522)?
Answer: 30 nM

Question: And the GI50 (OVCAR-8 [2])?
Answer: < 10 nM

Question: What about the GI50 (NCI-H23 [3]) of the same compound?
Answer: < 10 nM

Question: What about the IC50 (Dihydrofolate reductase [4]) of the same compound?
Answer: 3.7 nM

Question: And the GI50 (MOLT-4)?
Answer: 40 nM

Question: And the GI50 (NCI/ADR-RES)?
Answer: 10 nM

Question: And the GI50 (786-0)?
Answer: 20 nM

Question: And the GI50 (RPMI-8226 [5])?
Answer: < 10 nM

Question: And the GI50 (DU-145)?
Answer: 220 nM

Question: And the inhibition at 0.01 µM (NCI-H460 [6])?
Answer: 79%

Question: And the inhibition at 0.01 µM (HCT-116 [7])?
Answer: 76%

Question: And the GI50 (NCI-H322M)?
Answer: 11000 nM

Question: What about the inhibition at 0.01 µM (SF-295 [8]) of the same compound?
Answer: 53%

Question: What about the GI50 (SK-MEL-5 [9]) of the same compound?
Answer: < 10 nM

Question: And the inhibition at 0.01 µM (HCT-15 [10])?
Answer: 57%

Question: What about the GI50 (MDA-MB-435 [11]) of the same compound?
Answer: < 10 nM

Question: And the inhibition at 0.01 µM (SF-268 [12])?
Answer: 61%

Question: What about the inhibition at 0.01 µM (MDA-MB-435 [13]) of the same compound?
Answer: 56%

Question: What about the GI50 (SF-539) of the same compound?
Answer: 20 nM

Question: And the GI50 (UO-31 [14])?
Answer: < 10 nM

Question: And the GI50 (HCT-116 [15])?
Answer: < 10 nM

Question: What about the GI50 (M14) of the same compound?
Answer: 20 nM

Question: What about the GI50 (CAKI-1) of the same compound?
Answer: 10 nM

Question: And the inhibition at 0.01 µM (SK-MEL-5 [16])?
Answer: 60%

Question: And the inhibition at 0.01 µM (SNB-19 [17])?
Answer: 53%

Question: And the GI50 (NCI-H460 [18])?
Answer: < 10 nM

Question: And the GI50 (IGROV-1 [19])?
Answer: < 10 nM

Question: And the inhibition at 0.01 µM (NCI-H23 [20])?
Answer: 51%

Question: And the inhibition at 0.01 µM (RPMI-8226 [21])?
Answer: 56%

Question: And the IC50 [22]?
Answer: 7.6 nM

Question: And the inhibition at 0.01 µM (MDA-N [23])?
Answer: 58%

Question: And the inhibition at 0.01 µM (A549 [24])?
Answer: 67%

Question: What about the GI50 (SF-268 [25]) of the same compound?
Answer: < 10 nM

Question: What about the inhibition at 0.01 µM (IGROV-1 [26]) of the same compound?
Answer: 52%

Question: And the inhibition at 0.01 µM (OVCAR-8 [27])?
Answer: 57%

Question: What about the GI50 (SF-295 [28]) of the same compound?
Answer: < 10 nM

Question: And the GI50 (MCF7)?
Answer: 40 nM

Question: What about the inhibition at 0.01 µM (UO-31 [29]) of the same compound?
Answer: 65%

Question: What about the GI50 (KM12) of the same compound?
Answer: 40 nM

Question: What about the GI50 (A549 [30]) of the same compound?
Answer: < 10 nM

Question: What about the GI50 (SNB-19 [31]) of the same compound?
Answer: < 10 nM

Question: And the GI50 (MDA-N [32])?
Answer: < 10 nM

Question: What about the GI50 (HCT-15 [33]) of the same compound?
Answer: < 10 nM
